Experimental findings from patent US20230140290A1, “SALICYLAMIDE DERIVATIVES AND RELATED METHODS OF MAKING” (THE BOARD OF REGENTS OF THE UNIVERSITY OF TEXAS SY, priority 2020, published 2023) are described below.

Data set [1] relates to wild-type HAdV5. Kind of data set: Nuclear-associated HAdV genomes (real-time PCR). It is filed as cell-based, HAdV-5. How it is done:
(§1) Nuclear-Associated HAdV Genomes. The nuclear delivery of HAdV genomes was assessed by real-time PCR following nuclear isolation from infected cells. […] Forty-five minutes after infection, A549 cells were trypsinized and collected and then washed twice with PBS. Then, cytoplasmic and nuclear fractions were separated using a hypotonic buffer solution and NP-40 detergent. The cell pellet was resuspended in 500 μL of 1×hypotonic buffer (20 mM Tris-HCl pH 7.4, 10 mM NaCl, 3 mM MgCl2) and incubated for 15 min at 4° C. Then, 25 μL of NP-40 was added and the samples were vortexed. The homogenates were centrifuged for 10 min at 835 g at 4° C. Following the removal of the cytoplasmic fraction (supernatant), HAdV DNA was isolated from the nuclear fraction (pellet) and from the cytoplasmic fraction using the QIAamp DNA Mini Kit (QIAGEN, Valencia, Calif.).
as §1, with “E.Z.N.A.® Tissue” for “QIAamp”, “DNA” for “DNA Mini”, “(Omega Bio-tek, Norcross, Ga.).” for “(QIAGEN, Valencia, Calif.).”

Data set [2] deals with HAdV5-GFP. Description: Entry assay (HAdV5-mediated GFP expression). It is filed as cell-based, HAdV-5. The conditions noted are these: for inhibition at 50 µM: A549, 48 h, read-out: (%) Inhibition Entry Assay (50 μM); for IC50: A549, read-out: IC50 Entry Assay (μM), HAdV5-GFP, high MOI, A549 cell line. On the procedure:
Entry Assay. The anti-HAdV activity was measured in an entry assay using human A549 epithelial cells (3×10^5 cells/well in coming black wall, clear bottom 96-well plates) infected with HAdV5-GFP (2000 vp/cell) in the presence 50 μM of the candidates and in a dose-response assay. A standard infection curve was generated in parallel by infecting cells in the absence of compounds using serial 2-fold dilutions of virus. All reactions were done in triplicate. Cells, virus, and drugs were incubated for 48 h at 37° C. and 5% CO2.

The subject of data set [3] is HAdV5-GFP. Description: Plaque assay (inhibition of HAdV plaque formation). Type of data set: cell-based, HAdV-5. The conditions noted are these: for inhibition at 10 µM: read-out: Plaque Assay (%) Inhibition (10 μM); for Selectivity index (SI): ratio of CC50 to IC50 in plaque assay. Put shortly: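 Cells at 80-90% confluency infected with HAdV5-GFP at 0.06 vp/cell, rocked 2 h at 37° C, then washed with PBS. Compounds tested at 10 μM and in dose-response from 10 to 0.3 μM, included in the post-infection mixture.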

Data set [4] has as its system A549 cells. Kind of data set: Cytotoxicity assay (AlamarBlue). The conditions noted are these: read-out: CC50 (μM), cytotoxic concentration 50%; A549 cell line, 48 h. On the procedure: Cytotoxicity Assay. The cytotoxicity of the compounds was analyzed by commercial kit AlamarBlue® (Invitrogen, Ref. DAL1025). A549 cells at a density of 5×10^3 cells per well in 96-well plates were seeded. […] Cells were then incubated at 37° C. for 48 h following the kit protocol. The cytotoxic concentration 50 (CC50) value was obtained using the statistical package GraphPad Prism. This assay was performed in duplicate.
(In general: Resazurin is reduced to fluorescent resorufin, in cell work by metabolically active cells.)

Where [5] appears, read: FIG. 3, 45 min post infection, concentrations by CC50 (2-50 μM).
Setting [6] is: read-out: Plaque Assay IC50 (μM), HAdV5-GFP, low MOI, 293β5 cell line.

The structures appear in SMILES notation.

By inhibition is commonly meant the change of the read-out against control, counted positive when it falls. As usually defined, the IC50 is the concentration that inhibits the measured activity by half. For `O=C(Nc1ccc([N+](=O)[O-])cc1)c1cc(Cl)ccc1O` [Compound 13, 5-Chloro-2-hydroxy-N-(4-nitrophenyl)benzamide], the “amount of nuclear-associated HAdV genomes versus DMSO” value in data set [1] (setting [5]) is “significant (p≤0.0001) reductions”. Further, the inhibition at 50 µM in data set [2] is 100%. Besides, the inhibition at 10 µM in data set [3] turned out to be 98 ± 2.8%. For the same compound, the IC50 in data set [3] (setting [6]) was 0.11 µM.

For the compound `CC[C@@H](C)[C@H](NC(=O)c1cc(Cl)ccc1O)C(=O)Nc1ccc([N+](=O)[O-])cc1Cl` [Compound 62, 5-Chloro-N-((2S,3R)-1-((2-chloro-4-nitrophenyl)amino)-3-methyl-1-oxopentan-2-yl)-2-hydroxybenzamide], in data set [4], the CC50 was 20.2 µM. For the same compound, the “amount of nuclear-associated HAdV genomes versus DMSO” value in data set [1] (setting [5]) is on record as “significant (p≤0.0001) reductions”. Besides, in data set [2], the inhibition at 50 µM amounted to 98.2 ± 0.5% and the IC50 stood at 2.5 ± 0.22 µM. For the same compound, in data set [3], the “Selectivity index (SI)” value is recorded as 127.6 and the inhibition at 10 µM turned out to be 99 ± 0.3%. Besides, the IC50 in data set [3] (setting [6]) was 0.16 µM.

In the case of `CC(C)[C@H](NC(=O)c1cc(Cl)ccc1NS(C)(=O)=O)C(=O)Nc1ccc([N+](=O)[O-])cc1Cl` [Compound 70, (S)-5-Chloro-N-(1-((2-chloro-4-nitrophenyl)amino)-3-methyl-1-oxobutan-2-yl)-2-(methylsulfonamido)benzamide], the CC50 in data set [4] was 174 µM. The “amount of nuclear-associated HAdV genomes versus DMSO” value in data set [1] (setting [5]) is “significant (p≤0.0001) reductions”. Moreover, in data set [2], the inhibition at 50 µM amounted to 99.1 ± 1.2% and the IC50 came out at 1.38 ± 0.1 µM. Also, in data set [3], the “Selectivity index (SI)” value came to 256.0 and the inhibition at 10 µM stood at 99.1 ± 1.2%. Moreover, in data set [3] (setting [6]), the IC50 is 0.68 µM.

Regarding `CC(C)(Cc1ccccc1)ON(c1ccc(NC(=O)c2cc(Cl)ccc2O)c(Cl)c1)C(C)(C)Cc1ccccc1` [Compound 115, 5-Chloro-N-(2-chloro-4-((2-methyl-1-phenylpropan-2-yl)((2-methyl-1-phenylpropan-2-yl)oxy)amino)phenyl)-2-hydroxybenzamide], in data set [4], the CC50 is 165 µM. For the same compound, in data set [1] (FIG. 5A, 45 min post-infection, 10-fold plaque IC50), the “amount of nuclear-associated HAdV genomes versus DMSO” value was “no significant differences”. Besides, in data set [2], the inhibition at 50 µM was 59.1% and the half-inhibitory concentration (IC50) worked out at 34.1 µM. In data set [3], the “Selectivity index (SI)” value is given as 129.7 and the inhibition at 10 µM came to 100%. The IC50 in data set [3] (setting [6]) was 1.27 µM.

Take `O=C(Nc1ccc(N(CCCO)CCCO)cc1Cl)c1cc(Cl)ccc1O` [Compound 121, N-(4-(Bis(3-hydroxypropyl)amino)-2-chlorophenyl)-5-chloro-2-hydroxybenzamide]: in data set [4], the CC50 amounted to 114 ± 9.2 µM. In data set [3], the inhibition at 10 µM worked out at 35 ± 7.1%. Also, the “Plaque Assay (%) Inhibition (10 μM)” value in data set [3] ({}) was “inactive”.

`CC(C)(C)OC(=O)NCCNc1ccc(NC(=O)c2cc(Cl)ccc2O)c(Cl)c1` [Compound 122, tert-Butyl (2-((3-chloro-4-(5-chloro-2-hydroxybenzamido)phenyl)amino)ethyl)carbamate]: the CC50 in data set [4] was found to be 25 ± 5.7 µM. In addition, in data set [3], the “Selectivity index (SI)” value is 9.0 and the inhibition at 10 µM was found to be 100%. Moreover, in data set [3] (setting [6]), the IC50 was 2.78 µM.

`CC(C)(C)OC(=O)N1CCC(Nc2ccc(NC(=O)c3cc(Cl)ccc3O)c(Cl)c2)CC1` [Compound 124, tert-Butyl 4-((3-chloro-4-(5-chloro-2-hydroxybenzamido)phenyl)amino)piperidine-1-carboxylate]: the CC50 in data set [4] worked out at 100 µM. In data set [3], the “Selectivity index (SI)” value worked out at 82.6 and the inhibition at 10 µM was 88.9 ± 9%. Further, in data set [3] (setting [6]), the 50% inhibitory concentration (IC50) worked out at 1.21 µM.

`Cc1ccc(O)c(C(=O)Nc2ccc(NC3CCCC3)cc2Cl)c1` [Compound 136, N-(2-Chloro-4-(cyclopentylamino)phenyl)-2-hydroxy-5-methylbenzamide]: the CC50 in data set [4] came out at 30.9 ± 1.6 µM. Also, in data set [3], the “Selectivity index (SI)” value is on record as 11.4 and the inhibition at 10 µM is 99.6 ± 0.5%. Further, in data set [3] (setting [6]), the IC50 turned out to be 2.72 µM.

As for `CS(=O)(=O)Nc1ccc(Cl)cc1C(=O)Nc1ccc(NC2CCCC2)cc1Cl` [Compound 140, 5-Chloro-N-(2-chloro-4-(cyclopentylamino)phenyl)-2-(methylsulfonamido)benzamide], in data set [4], the CC50 is 35.4 ± 2.7 µM. For the same compound, in data set [3], the “Selectivity index (SI)” value amounted to 20.6 and the inhibition at 10 µM worked out at 99.8 ± 0.4%. The IC50 in data set [3] (setting [6]) turned out to be 1.72 µM.

For the compound `O=C(Nc1ccc(NC2CCCC2)cc1)c1cc(Cl)ccc1O` [Compound 141, 5-Chloro-N-(4-(cyclopentylamino)phenyl)-2-hydroxybenzamide], the CC50 in data set [4] was 10 ± 2.2 µM. Further, in data set [3], the “Selectivity index (SI)” value was found to be 3.9 and the inhibition at 10 µM was determined as 99.8 ± 0.3%. Also, the IC50 in data set [3] (setting [6]) amounted to 2.6 µM.

With `O=C(Nc1ccc(NC2CCCC2)cc1F)c1cc(Cl)ccc1O` [Compound 142, 5-Chloro-N-(4-(cyclopentylamino)-2-fluorophenyl)-2-hydroxybenzamide], the CC50 in data set [4] amounted to 51 ± 13.3 µM. Further, in data set [3], the “Selectivity index (SI)” value was 49.1 and the inhibition at 10 µM came to 98.7 ± 0.4%. The IC50 in data set [3] (setting [6]) was found to be 1.04 µM.

As for `O=C(Nc1ccc(NC2CCCC2)c(Cl)c1)c1cc(Cl)ccc1O` [Compound 143, 5-Chloro-N-(3-chloro-4-(cyclopentylamino)phenyl)-2-hydroxybenzamide], in data set [4], the CC50 came out at 16.9 ± 0.1 µM. Moreover, the “Selectivity index (SI)” value in data set [3] was found to be 20.1. For the same compound, the inhibition at 10 µM in data set [3] is 100%. Also, the IC50 in data set [3] (setting [6]) is 0.84 µM; in data set [3] (read-out: Plaque Assay IC50, HAdV5-GFP, low MOI, 293β5 cell line), 1.34 µM.

As to `O=C(Nc1cc(NC2CCCC2)ccc1F)c1cc(Cl)ccc1O` [Compound 144, 5-Chloro-N-(5-(cyclopentylamino)-2-fluorophenyl)-2-hydroxybenzamide], the CC50 in data set [4] turned out to be 44 ± 12.8 µM. Also, in data set [3], the “Selectivity index (SI)” value is given as 32.8 and the inhibition at 10 µM is 99.8 ± 0.4%. Moreover, in data set [3] (setting [6]), the IC50 is 1.34 ± 0.05 µM.

Consider `O=C(NCc1ccc(NC2CCCC2)cc1Cl)c1cc(Cl)ccc1O` [Compound 145, 5-Chloro-N-(2-chloro-4-(cyclopentylamino)benzyl)-2-hydroxybenzamide], for which the CC50 in data set [4] stood at 28.3 ± 2.5 µM. Also, in data set [3], the “Selectivity index (SI)” value came to 3.6 and the inhibition at 10 µM came to 98.5 ± 0.7%. Also, the half-maximal inhibitory concentration (IC50) in data set [3] (setting [6]) was 7.97 ± 0.43 µM.

In the case of `CC(C)[C@H](NC(=O)c1cc(Cl)ccc1O)C(=O)Nc1ccc(NC2CCCC2)cc1Cl` [Compound 147, (S)-5-chloro-N-(1-((2-chloro-4-(cyclopentylamino)phenyl)amino)-3-methyl-1-oxobutan-2-yl)-2-hydroxybenzamide], the CC50 in data set [4] amounted to 111 ± 8.4 µM. In data set [3], the “Selectivity index (SI)” value is on record as 28.9 and the inhibition at 10 µM turned out to be 99.5 ± 0.7%. For the same compound, in data set [3] (setting [6]), the IC50 turned out to be 3.83 ± 0.42 µM.
